The results in this text go back to US20240327412A1, “FACTOR XIIA INHIBITORS” (KALVISTA PHARMACEUTICALS LIMITED, priority 2021, published 2024).

By IC50 is commonly meant the point on the concentration scale where inhibition reaches its midpoint.

For experiment [1], the target named is T1, Plasma Kallikrein (Homo sapiens, UniProt P03952).
T1 construct: FXIIa converts plasma prekallikrein (PK) to plasma kallikrein (PKa)
Kind of experiment: Related protease inhibition: Plasma Kallikrein (fluorogenic substrate at Km). In kind it is biochemical. To be noted: class symbols per Table 18, read-out: IC50 (human PKal). The protocol: In vitro inhibition of related proteases was determined using an IC50 assay based on standard literature methods (see e.g. Shori et al., Biochem. Pharmacol., 1992, 43, 1209; Bouckaert et al., European Journal of Medicinal Chemistry 110 (2016) 181). Human serine protease enzyme Plasma Kallikrein, KLK1, FXa, Plasmin, Thrombin and Trypsin were assayed for enzymatic activity using an appropriate fluorogenic substrate at Km concentration, FXIa at fixed substrate concentration of 100 μM and various concentrations of the test compound. Protease activity was measured by monitoring the accumulation of liberated fluorescence from the substrate over 5 min at 25° C. The linear rate of fluorescence increase per minute was expressed as percentage (%) activity. IC50 values were calculated as the concentration of inhibitor giving 50% inhibition of the uninhibited enzyme activity (100%).

For experiment [2], the target named is T2, Human Factor XIIa (Homo sapiens, UniProt P00748).
T2 construct: Proteolytic cleavage of FXII to heavy and light chains of FXIIa dramatically increases catalytic activity; purchased Enzyme Research Laboratories
T2 sequence (P00748 373-615 limits assumed): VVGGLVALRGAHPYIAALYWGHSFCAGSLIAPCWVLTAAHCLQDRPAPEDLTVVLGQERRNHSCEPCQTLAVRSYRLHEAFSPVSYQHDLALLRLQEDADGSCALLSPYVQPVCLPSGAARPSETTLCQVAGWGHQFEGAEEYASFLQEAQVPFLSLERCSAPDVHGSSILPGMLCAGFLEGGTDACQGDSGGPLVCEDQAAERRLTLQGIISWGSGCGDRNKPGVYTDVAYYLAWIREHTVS
T2 sequence (P00748 20-372 partner limits assumed): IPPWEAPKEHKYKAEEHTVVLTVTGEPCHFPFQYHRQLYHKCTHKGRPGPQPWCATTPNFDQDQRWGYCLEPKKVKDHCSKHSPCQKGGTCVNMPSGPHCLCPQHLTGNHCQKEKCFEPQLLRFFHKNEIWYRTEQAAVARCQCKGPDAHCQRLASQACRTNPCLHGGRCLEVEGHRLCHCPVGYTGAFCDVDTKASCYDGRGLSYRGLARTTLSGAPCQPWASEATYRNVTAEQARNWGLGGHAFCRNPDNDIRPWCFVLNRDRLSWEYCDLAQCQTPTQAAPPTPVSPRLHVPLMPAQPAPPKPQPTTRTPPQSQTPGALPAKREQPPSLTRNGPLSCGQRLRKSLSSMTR
Kind of experiment: Determination of FXIIa inhibition (fluorogenic substrate H-DPro-Phe-Arg-AFC, IC50 assay). The class given is biochemical. The settings on record: substrate at Km concentration, 25° C.; category scale; read-out: Human FXII IC50 (nm). In a few lines:
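At substrate Km and 25° C., the rate of AFC release from H-DPro-Phe-Arg-AFC by human Factor XIIa was followed for 5 min across compound concentrations. Inhibition was derived as percent of uninhibited rate, giving IC50.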

Structures are written as SMILES. Some results are limits rather than exact numbers.

T1 sequence (P03952 391-638 limits assumed): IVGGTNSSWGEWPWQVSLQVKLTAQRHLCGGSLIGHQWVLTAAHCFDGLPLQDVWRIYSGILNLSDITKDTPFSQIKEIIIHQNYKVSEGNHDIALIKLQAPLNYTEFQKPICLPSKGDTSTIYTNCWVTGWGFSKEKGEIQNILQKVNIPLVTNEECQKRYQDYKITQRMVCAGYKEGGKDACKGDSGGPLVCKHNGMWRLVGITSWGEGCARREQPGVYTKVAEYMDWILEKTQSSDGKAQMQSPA
T1 sequence (P03952 20-390 partner limits assumed): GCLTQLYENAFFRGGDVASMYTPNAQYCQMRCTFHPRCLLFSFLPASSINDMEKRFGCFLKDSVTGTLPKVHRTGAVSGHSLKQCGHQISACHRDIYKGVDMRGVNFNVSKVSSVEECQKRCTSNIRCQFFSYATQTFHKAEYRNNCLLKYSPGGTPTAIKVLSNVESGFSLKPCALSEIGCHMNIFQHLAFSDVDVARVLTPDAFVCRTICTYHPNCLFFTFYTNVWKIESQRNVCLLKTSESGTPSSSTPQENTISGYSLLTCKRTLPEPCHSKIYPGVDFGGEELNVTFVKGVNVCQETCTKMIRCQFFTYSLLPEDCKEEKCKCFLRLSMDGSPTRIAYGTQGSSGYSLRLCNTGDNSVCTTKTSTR

Turning to `Nc1nccc2c(NCC34COC(COc5ccc6ncnn6c5)(C3)C4)cccc12` [Example 2210, N5-((1-(([1,2,4]triazolo[1,5-a]pyridin-6-yloxy)methyl)-2-oxabicyclo[2.1.1]hexan-4-yl)methyl)isoquinoline-1,5-diamine], the half-inhibitory concentration (IC50) was above 40 µM in experiment [1] and 1 to 3 µM in experiment [2].
In the same order, the values of `Nc1nccc2c(CCC34CC(COc5ccn6ccnc6c5)(C3)C4)cccc12` [Example 1014, 5-[2-[3-(Imidazo[1,2-a]pyridin-7-yloxymethyl)-1-bicyclo[1.1.1]pentanyl]ethyl]isoquinolin-1-amine] are above 40 µM and 1 to 3 µM.
In the same order, the values of `Nc1nccc2c(NCC34COC(COc5ccn6ncnc6c5)(C3)C4)cccc12` [Example 2207, N5-((1-(([1,2,4]triazolo[1,5-a]pyridin-7-yloxy)methyl)-2-oxabicyclo[2.1.1]hexan-4-yl)methyl)isoquinoline-1,5-diamine] are above 40 µM and 1 to 3 µM.
In the case of `Nc1nccc2c(NCC34CC(COc5ccccn5)(CCO3)C4)cccc12` [Example 10914, N5-((5-((pyridin-2-yloxy)methyl)-2-oxabicyclo[3.1.1]heptan-1-yl)methyl)isoquinoline-1,5-diamine], the results for the half-inhibitory concentration (IC50) in experiment [1] and in experiment [2] were above 40 µM and 3 to 10 µM, respectively.
Regarding `Nc1nccc2c(NCC34CC(COC5CCn6ccnc6C5)(CCO3)C4)cccc12` (stereo not shown) [Example 10903, N5-((5-(((5,6,7,8-tetrahydroimidazo[1,2-a]pyridin-7-yl)oxy)methyl)-2-oxabicyclo[3.1.1]heptan-1-yl)methyl)isoquinoline-1,5-diamine], the IC50 is above 4 µM in experiment [1] and 0.3 to 1 µM in experiment [2].
On to `Nc1nccc2c(NCC34CC(COc5cccn6ccnc56)(C3)C4)cccc12` [Example 1018, 5-N-[[3-(Imidazo[1,2-a]pyridin-8-yloxymethyl)-1-bicyclo[1.1.1]pentanyl]methyl]isoquinoline-1,5-diamine], for which the results for the IC50 in experiment [1] and in experiment [2] were above 40 µM and 0.3 to 1 µM, respectively.
With `Nc1nccc2c(NCC34COC(COc5ccn6c(C(F)(F)F)nnc6c5)(C3)C4)cccc12` [Example 2206, N5-((1-(((3-(trifluoromethyl)-[1,2,4]triazolo[4,3-a]pyridin-7-yl)oxy)methyl)-2-oxabicyclo[2.1.1]hexan-4-yl)methyl)isoquinoline-1,5-diamine], the concentration for half-maximal inhibition (IC50) in experiment [1] was above 40 µM; in experiment [2], 1 to 3 µM.
Take `Clc1c[nH]c2ncc(NCC34CC(COc5ccn6ccnc6c5)(C3)C4)cc12` [Example 1129, 3-chloro-N-((3-((imidazo[1,2-a]pyridin-7-yloxy)methyl)bicyclo[1.1.1]pentan-1-yl)methyl)-1H-pyrrolo[2,3-b]pyridin-5-amine]: the IC50 in experiment [1] is above 100 µM.
Take `Cn1ccc(OCC23CN(C(=O)NCc4ccc5occc5c4)C(CNc4cccc5c(N)nccc45)(C2)C3)cc1=O` [Example 12070, 1-(((1-aminoisoquinolin-5-yl)amino)methyl)-N-(benzofuran-5-ylmethyl)-4-(((1-methyl-2-oxo-1,2-dihydropyridin-4-yl)oxy)methyl)-2-azabicyclo[2.1.1]hexane-2-carboxamide]: the IC50 in experiment [2] is 0.01 to 0.1 µM.
On the same count and under the same terms, the result for `Nc1nccc2c(NCC34CC(COc5ccc6ncc(F)n6c5)(CO3)C4)cccc12` [Example 6625, N5-((4-(((3-fluoroimidazo[1,2-a]pyridin-6-yl)oxy)methyl)-2-oxabicyclo[2.1.1]hexan-1-yl)methyl)isoquinoline-1,5-diamine] reads 0.3 to 1 µM; that for `Nc1nccc2c(NCC34CC(NC(=O)c5ccc6nnc(C(F)F)n6c5)(C3)C4)cccc12` [Example 1132, N-(3-(((1-aminoisoquinolin-5-yl)amino)methyl)bicyclo[1.1.1]pentan-1-yl)-3-(difluoromethyl)-[1,2,4]triazolo[4,3-a]pyridine-6-carboxamide], 10 to 40 µM; that for `Cn1ccc(OCC23CC(CNc4cccc5c(N)nccc45)(CN2)C3)cc1=O` [Example 13007, 4-((4-(((1-aminoisoquinolin-5-yl)amino)methyl)-2-azabicyclo[2.1.1]hexan-1-yl)methoxy)-1-methylpyridin-2(1H)-one], 0.1 to 0.3 µM.
Regarding `Cn1ccc(OCC23CC(CNc4cccc5c(N)nccc45)(CN2c2nc4ccccc4o2)C3)cc1=O` [Example 13018, 4-[[4-[[(1-aminoisoquinolin-5-yl)amino]methyl]-2-(1,3-benzoxazol-2-yl)-2-azabicyclo[2.1.1]hexan-1-yl]methoxy]-1-methylpyridin-2-one], the 50% inhibitory concentration (IC50) in experiment [2] fell in the range of 0.3 to 1 µM.
Take `Cn1ccc(OCC23CC(CNc4cccc5c(N)nccc45)(CN2C(=O)CCc2cccnc2)C3)cc1=O` [Example 13010, 4-((4-(((1-aminoisoquinolin-5-yl)amino)methyl)-2-(3-(pyridin-3-yl)propanoyl)-2-azabicyclo[2.1.1]hexan-1-yl)methoxy)-1-methylpyridin-2(1H)-one]: in experiment [2], the IC50 was 0.1 to 0.3 µM.
Regarding `CN1Cc2ccc(OCC34CN(C(=O)OCc5ccccc5)C(CNc5cccc6c(N)nccc56)(C3)C4)cc2C1=O` [Example 12012, benzyl 1-(((1-aminoisoquinolin-5-yl)amino)methyl)-4-(((2-methyl-3-oxoisoindolin-5-yl)oxy)methyl)-2-azabicyclo[2.1.1]hexane-2-carboxylate], the half-inhibitory concentration (IC50) in experiment [2] lay in the range of 0.1 to 0.3 µM.
Take `Nc1nccc2c(NCC34CC(COc5ccc6c(c5)CCNC6=O)(CO3)C4)cccc12` [Example 6637, 6-((1-(((1-aminoisoquinolin-5-yl)amino)methyl)-2-oxabicyclo[2.1.1]hexan-4-yl)methoxy)-3,4-dihydroisoquinolin-1(2H)-one]: in experiment [2], the IC50 was in the range of 0.1 to 0.3 µM.
`Nc1nccc2c(NCC34CC(COc5ccc6nncn6c5)(CCO3)C4)cccc12` [Example 10929, N5-((5-(([1,2,4]triazolo[4,3-a]pyridin-6-yloxy)methyl)-2-oxabicyclo[3.1.1]heptan-1-yl)methyl)isoquinoline-1,5-diamine]: the IC50 in experiment [2] was 0.3 to 1 µM.
`Cn1ccc2cc(OCC34COC(CNc5cccc6c(N)nccc56)(C3)C4)ccc2c1=O` [Example 6643, 6-((1-(((1-aminoisoquinolin-5-yl)amino)methyl)-2-oxabicyclo[2.1.1]hexan-4-yl)methoxy)-2-methylisoquinolin-1(2H)-one]: the IC50 in experiment [2] was in the range of 0.3 to 1 µM.
With `Cn1cc(OCC23CCOC(CNc4cccc5c(N)nccc45)(C2)C3)ccc1=O` [Example 10943, 5-((1-(((1-aminoisoquinolin-5-yl)amino)methyl)-2-oxabicyclo[3.1.1]heptan-5-yl)methoxy)-1-methylpyridin-2(1H)-one], in experiment [2], the concentration for half-maximal inhibition (IC50) fell in the range of 1 to 3 µM.
With `CCn1c(C)cc(OCC23CCOC(CNc4cccc5c(N)nccc45)(C2)C3)cc1=O` [Example 10964, 4-((1-(((1-aminoisoquinolin-5-yl)amino)methyl)-2-oxabicyclo[3.1.1]heptan-5-yl)methoxy)-1-ethyl-6-methylpyridin-2(1H)-one], the half-maximal inhibitory concentration (IC50) in experiment [2] lay in the range of 0.01 to 0.1 µM.
`Cn1ccc(OCC23CN(C(=O)OCc4ccc(F)c(F)c4)C(CNc4cccc5c(N)nccc45)(C2)C3)cc1=O` [Example 12020, 3,4-difluorobenzyl 1-(((1-aminoisoquinolin-5-yl)amino)methyl)-4-(((1-methyl-2-oxo-1,2-dihydropyridin-4-yl)oxy)methyl)-2-azabicyclo[2.1.1]hexane-2-carboxylate]: the IC50 in experiment [2] fell in the range of 0.1 to 0.3 µM.
Consider `Cc1ccnc(OCC23CCOC(CNc4cccc5c(N)nccc45)(C2)C3)c1` [Example 10955, N5-((5-(((4-methylpyridin-2-yl)oxy)methyl)-2-oxabicyclo[3.1.1]heptan-1-yl)methyl)isoquinoline-1,5-diamine], for which, in experiment [2], the IC50 lay within 1 to 3 µM.
Same read-out and setting: under `Nc1nccc2c(NCC34CC(COc5ccc6ncc(C7CC7)n6c5)(CO3)C4)cccc12` [Example 6639, N5-((4-(((3-cyclopropylimidazo[1,2-a]pyridin-6-yl)oxy)methyl)-2-oxabicyclo[2.1.1]hexan-1-yl)methyl)isoquinoline-1,5-diamine] stands 0.01 to 0.1 µM.
Still for that read-out and setting: the result for `Cc1cc(OCC23CN(C(=O)Cc4ccccc4)C(CNc4cccc5c(N)nccc45)(C2)C3)cc(=O)n1C` [Example 12039, 4-((1-(((1-aminoisoquinolin-5-yl)amino)methyl)-2-(2-phenylacetyl)-2-azabicyclo[2.1.1]hexan-4-yl)methoxy)-1,6-dimethylpyridin-2(1H)-one] reads 0.01 to 0.1 µM.
